Measurements from patent US11136409B2, “Compositions and methods for identification, assessment, prevention, and treatment of AML using USP10 biomarkers and modulators” (Dana-Farber Cancer Institute, Inc., priority 2016, dated 2021).

How the values were obtained:
USP10 = USP10 (Homo sapiens, UniProt Q14694); experiment: MALDI TOF DUB assay with diubiquitin substrate; type: biochemical; settings: diubiquitin (K11) as substrate
Description: (§1) Thirty-one human DUBs were freshly diluted in the reaction buffer (40 mM Tris-HCl, pH 7.6, 5 mM DTT, 0.005% BSA) at different concentrations (see Table 10). […] The enzymes were pre-incubated with the compounds for 30 min at room temperature at 10 μM final concentration. 0.48 μl of di-ubiquitin topoisomers were added to the reaction mixture to initiate the reaction. The reaction was sealed and incubated for 30 min at room temperature and stopped by adding TFA to a final concentration of 2% (v/v).
Mass spectrometry data was acquired on an UltrafleXtreme MALDI-TOF mass spectrometer (Bruker Daltonics) with Compass 1.3 control and processing software. The sample carrier was taught before each analysis to optimize and centre laser shooting. […] Samples were analysed in automatic mode (AutoXecute, Bruker Daltonics). […] An amount of 3,500 shots were summed up in “random walk” and with “large” smartbeam laser focus. Spectra were automatically calibrated on the ^15N-Ub m/z and processed using smoothing (Savitzky-Golay algorithm) and baseline subtraction (‘TopHat’) for reproducible peak annotation on non-resolved isotope distributions: one cycle, 0.2 m/z for the width. For area calculation, the complete isotopic distribution was taken into account. […]

USP7 = USP7 (Homo sapiens, UniProt Q93009); experiment: MALDI TOF DUB assay with diubiquitin substrate; type: biochemical; settings: diubiquitin as substrate, same assay as USP10
Chain of USP7 (Q93009 whole entry): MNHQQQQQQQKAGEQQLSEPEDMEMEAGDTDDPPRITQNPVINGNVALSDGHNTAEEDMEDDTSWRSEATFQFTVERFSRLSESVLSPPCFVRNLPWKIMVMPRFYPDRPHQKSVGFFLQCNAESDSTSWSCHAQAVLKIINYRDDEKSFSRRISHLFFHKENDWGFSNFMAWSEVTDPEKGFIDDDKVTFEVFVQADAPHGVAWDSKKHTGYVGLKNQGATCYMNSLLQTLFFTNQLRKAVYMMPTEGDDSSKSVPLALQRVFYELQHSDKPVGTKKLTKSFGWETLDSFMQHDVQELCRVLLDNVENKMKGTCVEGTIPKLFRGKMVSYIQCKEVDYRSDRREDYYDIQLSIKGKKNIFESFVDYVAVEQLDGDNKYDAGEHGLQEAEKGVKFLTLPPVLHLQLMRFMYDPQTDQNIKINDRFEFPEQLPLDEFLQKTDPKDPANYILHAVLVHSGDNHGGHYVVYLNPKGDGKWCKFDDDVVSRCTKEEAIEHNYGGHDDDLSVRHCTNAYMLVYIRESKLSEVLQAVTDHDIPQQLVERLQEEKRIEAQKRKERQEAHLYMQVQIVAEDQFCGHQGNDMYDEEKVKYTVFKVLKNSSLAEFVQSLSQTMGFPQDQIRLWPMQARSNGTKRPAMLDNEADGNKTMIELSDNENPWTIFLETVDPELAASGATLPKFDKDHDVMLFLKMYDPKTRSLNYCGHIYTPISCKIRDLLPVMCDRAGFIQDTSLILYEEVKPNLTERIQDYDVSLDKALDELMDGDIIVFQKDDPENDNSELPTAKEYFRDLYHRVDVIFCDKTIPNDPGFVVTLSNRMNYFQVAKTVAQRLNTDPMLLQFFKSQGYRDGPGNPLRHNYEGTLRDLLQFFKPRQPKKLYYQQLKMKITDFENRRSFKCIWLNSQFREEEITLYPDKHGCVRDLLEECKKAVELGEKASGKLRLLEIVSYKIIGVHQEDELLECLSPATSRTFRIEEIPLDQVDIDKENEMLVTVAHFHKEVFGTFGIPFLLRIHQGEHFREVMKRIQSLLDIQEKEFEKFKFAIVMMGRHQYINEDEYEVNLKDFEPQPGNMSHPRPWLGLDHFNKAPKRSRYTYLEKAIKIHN
Description: Thirty-one human DUBs were freshly diluted in the reaction buffer (40 mM Tris-HCl, pH 7.6, 5 mM DTT, 0.005% BSA) at different concentrations (see Table 10). […] 0.48 μl of di-ubiquitin topoisomers were added to the reaction mixture to initiate the reaction. The reaction was sealed and incubated for 30 min at room temperature and stopped by adding TFA to a final concentration of 2% (v/v).
(§2) Mass spectrometry data was acquired on an UltrafleXtreme MALDI-TOF mass spectrometer (Bruker Daltonics) with Compass 1.3 control and processing software. The sample carrier was taught before each analysis to optimize and centre laser shooting. […] Samples were analysed in automatic mode (AutoXecute, Bruker Daltonics). […] An amount of 3,500 shots were summed up in “random walk” and with “large” smartbeam laser focus. Spectra were automatically calibrated on the ^15N-Ub m/z and processed using smoothing (Savitzky-Golay algorithm) and baseline subtraction (‘TopHat’) for reproducible peak annotation on non-resolved isotope distributions: one cycle, 0.2 m/z for the width. For area calculation, the complete isotopic distribution was taken into account. An in-house made script was used to report—^15N and mono-ubiquitin areas; plotting of graphs, calculation of standard deviation and coefficient of variation (%) were processed in Microsoft Excel.

[1] = tested on: panel of 33 recombinant DUB enzymes; settings: 10 μM compound; diubiquitin as substrate
Description: as §1, with “Thirty-one human DUBs were freshly diluted in the reaction buffer (40 mM Tris-HCl, pH 7.6, 5 mM DTT, 0.005% BSA) at different concentrations (see Table 10).” left out
as §2

Ba/F3-FLT3-ITD cells = experiment: Proliferation of Ba/F3-FLT3-ITD cells; type: cell-based, murine
Description: Nomo-1, P31-FUJ, and NB4 were obtained from Dr. Gary Gilliland. MV4, 11 cells were obtained from Dr. Anthony Letai. Hel, K562, THP, U937, TF-1 and K052 cells were purchased from the American Type Culture Collection (ATCC) (Manassas, Va., USA). […] Cell lines were submitted for cell line authentication and were authenticated within 6 months of manuscript preparation through cell line short tandem repeat (STR) profiling (DDC Medical, Fairfield, Ohio and Molecular Diagnostics Laboratory, Dana Farber Cancer Institute). […] PBMCs were generously provided by Dr. Steven Treon and Dr. Guang Yang.
The CellTiter-Glo® assay (Promega, Madison, Wis.) was used for proliferation studies and carried out according to manufacturer instructions. Cell viability is reported as percentage of control (untreated) cells, and error bars represent the standard error of the mean for each data point.

[2] = tested on: FLT3-ITD-positive AML primagraft cells; experiment: FLT3 immunoblot in ex vivo-treated AML primagraft cells; type: cell-based, human; settings: 21 hours of treatment; concentration of 20
Description: Protein lysate preparation, immunoblotting, and immunoprecipitation were carried out as previously described in Weisberg et al. (2002) Cancer Cell 1:433-443.

Chain of USP10 (Q14694 whole entry): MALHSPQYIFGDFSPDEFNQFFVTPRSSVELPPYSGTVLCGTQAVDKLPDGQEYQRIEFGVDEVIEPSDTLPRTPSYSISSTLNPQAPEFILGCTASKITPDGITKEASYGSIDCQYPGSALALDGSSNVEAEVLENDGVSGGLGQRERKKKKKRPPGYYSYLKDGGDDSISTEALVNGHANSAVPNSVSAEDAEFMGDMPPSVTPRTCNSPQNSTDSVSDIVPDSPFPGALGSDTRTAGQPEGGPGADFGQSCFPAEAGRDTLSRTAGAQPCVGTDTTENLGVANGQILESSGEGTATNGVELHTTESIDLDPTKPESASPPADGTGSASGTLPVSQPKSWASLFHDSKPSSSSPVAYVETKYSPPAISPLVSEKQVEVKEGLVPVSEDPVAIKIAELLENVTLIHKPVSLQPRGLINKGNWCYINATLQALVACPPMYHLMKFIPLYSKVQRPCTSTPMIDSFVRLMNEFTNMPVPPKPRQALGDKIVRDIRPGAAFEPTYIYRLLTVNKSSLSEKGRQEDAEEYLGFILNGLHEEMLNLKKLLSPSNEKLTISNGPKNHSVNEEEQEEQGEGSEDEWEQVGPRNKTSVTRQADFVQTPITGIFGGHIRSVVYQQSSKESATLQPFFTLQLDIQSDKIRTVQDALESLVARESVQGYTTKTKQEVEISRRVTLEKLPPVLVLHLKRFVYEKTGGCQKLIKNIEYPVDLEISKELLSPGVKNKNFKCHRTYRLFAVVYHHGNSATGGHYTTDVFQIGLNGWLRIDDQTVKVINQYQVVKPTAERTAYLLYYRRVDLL

CN(CCCNC(=O)c1ccc2nc3c(c(Cl)c2c1)CCCC3)Cc1ccccc1 [HBX19818, reference compound]
IC50 (USP10): 14 µM | IC50 (USP7): 57 µM | Inhibition of DUBs other than USP10 [1]: ≤ 20% | Proliferation EC50 (Ba/F3-FLT3-ITD cells): single digit micromolar range | FLT3 levels via immunoblotting [2]: no trace of FLT3
